Kd data for one substance are collected here from patent US6995167B2 (priority 1999, dated 2006).

The test addresses α7 nAChR subtype (Rattus norvegicus, UniProt Q05941). The test is classed as binding. The note with it: read-out: KD of radioligand.

Usually Kd stands for the concentration at which binding is half-saturated.

α7 nAChR subtype, sequence (Q05941 23-502 limits assumed): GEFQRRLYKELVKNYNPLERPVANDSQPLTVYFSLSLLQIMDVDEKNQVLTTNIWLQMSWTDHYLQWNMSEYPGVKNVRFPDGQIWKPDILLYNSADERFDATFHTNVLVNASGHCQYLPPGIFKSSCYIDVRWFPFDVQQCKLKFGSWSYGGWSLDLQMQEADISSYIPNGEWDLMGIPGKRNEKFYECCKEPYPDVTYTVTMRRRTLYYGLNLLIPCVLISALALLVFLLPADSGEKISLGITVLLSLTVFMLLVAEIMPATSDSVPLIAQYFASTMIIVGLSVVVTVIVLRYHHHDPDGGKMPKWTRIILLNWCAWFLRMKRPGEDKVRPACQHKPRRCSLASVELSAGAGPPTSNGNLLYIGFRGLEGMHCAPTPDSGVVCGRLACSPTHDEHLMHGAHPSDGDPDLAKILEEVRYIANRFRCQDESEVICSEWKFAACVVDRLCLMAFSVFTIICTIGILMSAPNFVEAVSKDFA

Consider ^125I-α-Bungarotoxin [^125I-α-BTX], for which the Kd amounted to 1.67 nM.
